Several values for one entry are separate records, joined by “and”; a condition that tells them apart may be missing. Equal values may be shown once. Read-outs that look alike come from different tables or passages of the source.
Legend:
[1] = furosemide 40 mg alone, geometric least squares mean
[2] = format: in vivo, healthy subjects; conditions: mean (SD)
Safety assessments = format: in vivo, healthy subjects; conditions: for Pulse rate / Supine diastolic blood pressure / Supine systolic blood pressure: mean ± SD; for eGFR: mean ± standard deviation, baseline 107.8 ± 10.9
[3] = format: in vivo, healthy subjects; conditions: for Tmax / AUC / Cmax: human, plasma, oral; for AUC: AUCtau, steady state; for AUC / Cmax: mean (SD); for Cmax: Cmax,ss; for Estimated geometric mean ratio of AUCtau / Estimated geometric mean ratio of Cmax,ss: sacubitril/valsartan + furosemide vs sacubitril/valsartan alone
[4] = urine, 4 to 8 h after furosemide
[5] = 200 mg, sacubitril/valsartan 200 mg twice daily alone
[6] = sacubitril/valsartan 200 mg twice daily + furosemide 40 mg single dose

Compound | Pulse rate (Safety assessments) [bpm] | Supine diastolic blood pressure (Safety assessments) [mmHg] | Supine systolic blood pressure (Safety assessments) [mmHg] | eGFR (Safety assessments) [ml min^–1 1.73 m^–2] | Tmax ([3]; 200 mg) [h] | AUC [3, 5] [ng·h/mL] | Cmax [3, 5] [ng/mL] | AUC [3, 6] [ng·h/mL] | Cmax [3, 6] [ng/mL] | Estimated geometric mean ratio of AUCtau [3] | Estimated geometric mean ratio of Cmax,ss [3] | other results
NS(=O)(=O)c1cc(C(=O)O)c(NCc2ccco2)cc1Cl [Furosemide, furosemide] | 71.0 ± 9.7 | 71.6 ± 6.1 | 115.5 ± 12.2 | 103.1 ± 12.5 |  |  |  |  |  |  |  | Ae0–4, amount excreted in urine ([1]; 0 to 4 h): 8.03 mg; Ae0–24, amount excreted in urine ([1]; 0 to 24 h): 12.54 mg; Urine volume, Volume0–4 ([2]; 0 to 4 h after furosemide): 1640.00 (413.49) ml; Urine volume, Volume0–24 ([2]; 0 to 24 h after furosemide): 3816.07 (533.04) ml; Urine volume, Volume4–8 ([2]; 4 to 8 h after furosemide): 585.36 (204.30) ml; Potassium Ae0–4 ([2]; urine, 0 to 4 h after furosemide): 22.87 (5.60) mmol; Sodium Ae0–4 ([2]; urine, 0 to 4 h after furosemide, listed as Furosemide alone): 128.87 mmol and 128.87 (42.36) mmol; Potassium Ae0–24 ([2]; urine, 0 to 24 h after furosemide): 60.35 (8.08) mmol; Sodium Ae0–24 ([2]; urine, 0 to 24 h after furosemide, listed as Furosemide alone): 198.68 mmol and 198.68 (34.95) mmol; Potassium Ae4–8 [2, 4]: 10.04 (3.74) mmol; Sodium Ae4–8 [2, 4]: 21.57 (12.89) mmol; subjects reporting AE back pain (Safety assessments; one subject of 28): 3.6%; subjects reporting AEs (Safety assessments; when treated with furosemide, 28 subjects): Two subjects reported AEs
CCOC(=O)[C@H](C)C[C@@H](Cc1ccc(-c2ccccc2)cc1)NC(=O)CCC(=O)O [Sacubitril, sacubitril] |  |  |  |  | 0.52 | 2330 | 1740 | 2330 | 1810 | 1.01 | 1.04 | 
C[C@H](C[C@@H](Cc1ccc(-c2ccccc2)cc1)NC(=O)CCC(=O)O)C(=O)O [Sacubitrilat, sacubitrilat] |  |  |  |  | 2 | 79600 | 11800 | 86100 | 12700 | 1.08 | 1.08 | 
CCCCC(=O)N(Cc1ccc(-c2ccccc2-c2nnn[nH]2)cc1)[C@H](C(=O)O)C(C)C [Valsartan, valsartan] |  |  |  |  | 1.75 | 18900 | 3860 | 21000 | 4250 | 1.16 | 1.16 | coefficient of variation of pharmacokinetic parameters ([3]; valsartan pharmacokinetic parameters): 35.8%; increase of AUCtau when coadministered with furosemide ([3]; vs sacubitril/valsartan alone): 16%; increase of Cmax,ss when coadministered with furosemide ([3]; vs sacubitril/valsartan alone): 16%
sacubitril/valsartan | 71.6 ± 9.9 | 67.5 ± 7.9 | 111.1 ± 10.7 | 107.7 ± 12.5 |  |  |  |  |  |  |  | subjects reporting AEs diarrhoea, headache and presyncope (each) (Safety assessments; each reported by one subject of 28, sacubitril/valsartan alone): 3.6%
